*1 amine or outer side, *2 acyl side, *3 side chain or, on linkers, in order; H or OH if unused. Where a SMILES comes first, the peptide text is derived from it. Bridges are numbered along the chain shown (N, C = ends). [ ]: non-standard residue; d: D form. The star is where a group is joined. X5 = NC(=O)[C@H](CCCCNC(=O)CN1CCN(CC(=O)O)CCN(CC(=O)O)CCN(CC(=O)O)CC1)NC(=O)CCC(=O)NCCCOCCOCCOCCCN*; X3 = O=C(O)CN1CCN(CC(=O)O)CCN(CC(=O)NCCCOCCOCCOCCCN*)CCN(CC(=O)O)CC1; Trp(5-Br) = N[C@@H](Cc1c[nH]c2ccc(Br)cc12)C(=O)O; Trp(5-Cl) = N[C@@H](Cc1c[nH]c2ccc(Cl)cc12)C(=O)O; Trp(5-F) = N[C@@H](Cc1c[nH]c2ccc(F)cc12)C(=O)O; Trp(6-F) = N[C@@H](Cc1c[nH]c2cc(F)ccc12)C(=O)O; 1Nal = N[C@@H](Cc1cccc2ccccc12)C(=O)O; mXylylene = c1cc(C[*:1])cc(C[*:2])c1; Bta = N[C@@H](Cc1csc2ccccc12)C(=O)O; X7 = c1cc(CSCCN[*:2])cc(C[*:1])c1; Suc = O=C(CCC(=O)[*:2])[*:1]; Ac6c = NC1(C(=O)O)CCCCC1; Api = NC1(C(=O)O)CCNCC1; Thp = NC1(C(=O)O)CCOCC1; Aib = CC(C)(N)C(=O)O

The target in the assay is T1, GIPR (CHO-K1-hGIPR cells) (Homo sapiens, UniProt P48546).
T1 construct: host or cells: CHO-K1
T1 sequence (P48546 22-466): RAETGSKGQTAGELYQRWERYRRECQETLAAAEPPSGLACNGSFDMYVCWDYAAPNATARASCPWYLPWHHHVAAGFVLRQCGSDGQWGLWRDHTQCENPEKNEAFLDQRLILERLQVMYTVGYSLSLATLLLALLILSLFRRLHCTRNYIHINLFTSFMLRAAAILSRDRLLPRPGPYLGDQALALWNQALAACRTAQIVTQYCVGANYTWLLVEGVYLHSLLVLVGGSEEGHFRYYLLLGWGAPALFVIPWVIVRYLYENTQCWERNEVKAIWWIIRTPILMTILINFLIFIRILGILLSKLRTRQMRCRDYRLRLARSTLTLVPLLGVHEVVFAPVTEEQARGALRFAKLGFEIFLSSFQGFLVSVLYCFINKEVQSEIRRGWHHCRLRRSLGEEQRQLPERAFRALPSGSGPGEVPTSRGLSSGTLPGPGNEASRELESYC
Description: FACS binding assay. The following applies: competition with 20 nM GIP-057, 4° C., 1 hour, read-out: pIC50 Category (converted). In a few lines: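 CHO-K1 cells expressing human GIPR, washed in PBS/1% FCS, then stained with 1 μg/mL APC-streptavidin for 30 min on ice.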
Turning to `CC[C@H](C)[C@@H]1NC(=O)[C@H](CC(C)C)NC(=O)C(C)(C)NC(=O)[C@@H](NC(=O)[C@H](CC(C)C)NC(=O)[C@H](CCC(=O)O)NC(=O)[C@@H]2CCCN2C(=O)[C@H](Cc2csc3ccccc23)NC(=O)[C@H](Cc2c[nH]c3ccccc23)NC(=O)[C@H](CC(=O)O)NC(C)=O)CSCc2cccc(c2)CSC[C@@H](C(=O)NCCCOCCOCCOCCCNC(=O)CCC(=O)N[C@@H](CCCCNC(=O)CN2CCN(CC(=O)O)CCN(CC(=O)O)CCN(CC(=O)O)CC2)C(N)=O)NC1=O` [GIP-075, Ac-Asp-Trp-Bta-Pro-Glu-Leu-[Cys(3MeBn)-Aib-Leu-Ile-Cys]-Ttds-Lys(DOTA)-NH2] (Ac-DW[Bta]PELC[Aib]LIC-X5; linker 7-11 via mXylylene), the IC50 is below 10 nM.

With `CC[C@H](C)[C@@H]1NC(=O)[C@H](CC(C)C)NC(=O)C(C)(C)NC(=O)[C@@H](NC(=O)[C@H](CC(C)C)NC(=O)[C@H](CCC(=O)O)NC(=O)[C@@H]2CCCN2C(=O)[C@H](Cc2c[nH]c3ccc(Cl)cc23)NC(=O)[C@H](Cc2c[nH]c3ccccc23)NC(=O)[C@H](CC(=O)O)NC(C)=O)CSCc2cccc(c2)CSC[C@@H](C(=O)NCCCOCCOCCOCCCNC(=O)CCC(=O)N[C@@H](CCCCNC(=O)CN2CCN(CC(=O)O)CCN(CC(=O)O)CCN(CC(=O)O)CC2)C(N)=O)NC1=O` [GIP-076, Ac-Asp-Trp-5Clw-Pro-Glu-Leu-[Cys(3MeBn)-Aib-Leu-Ile-Cys]-Ttds-Lys(DOTA)-NH2] (Ac-DW[Trp(5-Cl)]PELC[Aib]LIC-X5; linker 7-11 via mXylylene), the IC50 is below 10 nM.

For the molecule `CC[C@H](C)[C@@H]1NC(=O)[C@H](CC(C)C)NC(=O)C(C)(C)NC(=O)[C@@H](NC(=O)[C@@H](CC(C)C)NC(=O)[C@H](CCC(=O)O)NC(=O)[C@@H]2CCCN2C(=O)[C@H](Cc2cccc3ccccc23)NC(=O)[C@H](Cc2c[nH]c3ccccc23)NC(=O)[C@H](CC(=O)O)NC(C)=O)CSCc2cccc(c2)CSC[C@@H](C(=O)NCCCOCCOCCOCCCNC(=O)CCC(=O)N[C@@H](CCCCNC(=O)CN2CCN(CC(=O)O)CCN(CC(=O)O)CCN(CC(=O)O)CC2)C(N)=O)NC1=O` [GIP-078, Ac-Asp-Trp-1Ni-Pro-Glu-leu-[Cys(3MeBn)-Aib-Leu-Ile-Cys]-Ttds-Lys(DOTA)-NH2] (Ac-DW[1Nal]PE[dL]C[Aib]LIC-X5; linker 7-11 via mXylylene), the IC50 was below 10 nM.

In the case of `CC[C@H](C)[C@@H]1NC(=O)[C@H](CC(C)C)NC(=O)C2(CCCCC2)NC(=O)[C@@H](NC(=O)[C@@H](CC(C)C)NC(=O)[C@H](CCC(=O)O)NC(=O)[C@@H]2CCCN2C(=O)[C@H](Cc2cccc3ccccc23)NC(=O)[C@H](Cc2c[nH]c3ccccc23)NC(=O)[C@H](CC(=O)O)NC(C)=O)CSCc2cccc(c2)CSC[C@@H](C(=O)NCCCOCCOCCOCCCNC(=O)CCC(=O)N[C@@H](CCCCNC(=O)CN2CCN(CC(=O)O)CCN(CC(=O)O)CCN(CC(=O)O)CC2)C(N)=O)NC1=O` [GIP-080, Ac-Asp-Trp-1Ni-Pro-Glu-leu-[Cys(3MeBn)-Egz-Leu-Ile-Cys]-Ttds-Lys(DOTA)-NH2] (Ac-DW[1Nal]PE[dL]C[Ac6c]LIC-X5; linker 7-11 via mXylylene), the IC50 was below 10 nM.

On to `CC[C@H](C)[C@@H]1NC(=O)[C@H](CC(C)C)NC(=O)C(C)(C)NC(=O)[C@@H](NC(=O)[C@@H](CC(C)C)NC(=O)[C@H](CCC(=O)O)NC(=O)[C@@H]2CCCN2C(=O)[C@H](Cc2c[nH]c3ccc(F)cc23)NC(=O)[C@H](Cc2c[nH]c3ccccc23)NC(=O)[C@H](CC(=O)O)NC(C)=O)CSCc2cccc(c2)CSC[C@@H](C(=O)NCCCOCCOCCOCCCNC(=O)CCC(=O)N[C@@H](CCCCNC(=O)CN2CCN(CC(=O)O)CCN(CC(=O)O)CCN(CC(=O)O)CC2)C(N)=O)NC1=O` [GIP-081, Ac-Asp-Trp-5Fw-Pro-Glu-leu-[Cys(3MeBn)-Aib-Leu-Ile-Cys]-Ttds-Lys(DOTA)-NH2] (Ac-DW[Trp(5-F)]PE[dL]C[Aib]LIC-X5; linker 7-11 via mXylylene), for which the IC50 was below 10 nM.

For the molecule `CC[C@H](C)[C@@H]1NC(=O)[C@H](CC(C)C)NC(=O)C(C)(C)NC(=O)[C@@H](NC(=O)[C@@H](CC(C)C)NC(=O)[C@H](CCC(=O)O)NC(=O)[C@@H]2CCCN2C(=O)[C@H](Cc2c[nH]c3ccc(Br)cc23)NC(=O)[C@H](Cc2c[nH]c3ccccc23)NC(=O)[C@H](CC(=O)O)NC(C)=O)CSCc2cccc(c2)CSC[C@@H](C(=O)NCCCOCCOCCOCCCNC(=O)CCC(=O)N[C@@H](CCCCNC(=O)CN2CCN(CC(=O)O)CCN(CC(=O)O)CCN(CC(=O)O)CC2)C(N)=O)NC1=O` [GIP-082, Ac-Asp-Trp-5Brw-Pro-Glu-leu-[Cys(3MeBn)-Aib-Leu-Ile-Cys]-Ttds-Lys(DOTA)-NH2] (Ac-DW[Trp(5-Br)]PE[dL]C[Aib]LIC-X5; linker 7-11 via mXylylene), the IC50 was below 10 nM.

Regarding `CC[C@H](C)[C@@H]1NC(=O)[C@H](CC(C)C)NC(=O)C(C)(C)NC(=O)[C@@H](NC(=O)[C@@H](CC(C)C)NC(=O)[C@H](CCC(=O)O)NC(=O)[C@@H]2CCCN2C(=O)[C@H](Cc2cccc3ccccc23)NC(=O)[C@H](Cc2c[nH]c3ccc(F)cc23)NC(=O)[C@H](CC(=O)O)NC(C)=O)CSCc2cccc(c2)CSC[C@@H](C(=O)NCCCOCCOCCOCCCNC(=O)CCC(=O)N[C@@H](CCCCNC(=O)CN2CCN(CC(=O)O)CCN(CC(=O)O)CCN(CC(=O)O)CC2)C(N)=O)NC1=O` [GIP-083, Ac-Asp-5Fw-1Ni-Pro-Glu-leu-[Cys(3MeBn)-Aib-Leu-Ile-Cys]-Ttds-Lys(DOTA)-NH2] (Ac-D[Trp(5-F)][1Nal]PE[dL]C[Aib]LIC-X5; linker 7-11 via mXylylene), the IC50 was below 10 nM.

Take `CC[C@H](C)[C@@H]1NC(=O)[C@H](CC(C)C)NC(=O)C(C)(C)NC(=O)[C@@H](NC(=O)[C@@H](CC(C)C)NC(=O)[C@H](CCC(=O)O)NC(=O)[C@@H]2CCCN2C(=O)[C@H](Cc2cccc3ccccc23)NC(=O)[C@H](Cc2c[nH]c3cc(F)ccc23)NC(=O)[C@H](CC(=O)O)NC(C)=O)CSCc2cccc(c2)CSC[C@@H](C(=O)NCCCOCCOCCOCCCNC(=O)CCC(=O)N[C@@H](CCCCNC(=O)CN2CCN(CC(=O)O)CCN(CC(=O)O)CCN(CC(=O)O)CC2)C(N)=O)NC1=O` [GIP-084, Ac-Asp-6Fw-Ni-Pro-Glu-leu-[Cys(3MeBn)-Aib-Leu-Ile-Cys]-Ttds-Lys(DOTA)-NH2] (Ac-D[Trp(6-F)][1Nal]PE[dL]C[Aib]LIC-X5; linker 7-11 via mXylylene): the IC50 is below 10 nM.

As for `CC[C@H](C)[C@@H]1NC(=O)[C@H](CC(C)C)NC(=O)C(C)(C)NC(=O)[C@@H](NC(=O)[C@H](CC(C)C)NC(=O)[C@H](CCC(=O)O)NC(=O)[C@@H]2CCCN2C(=O)[C@H](Cc2cccc3ccccc23)NC(=O)[C@H](Cc2c[nH]c3ccccc23)NC(=O)CCC(=O)O)CSCc2cccc(c2)CSC[C@@H](C(=O)NCCCOCCOCCOCCCNC(=O)CCC(=O)N[C@@H](CCCCNC(=O)CN2CCN(CC(=O)O)CCN(CC(=O)O)CCN(CC(=O)O)CC2)C(N)=O)NC1=O` [GIP-085, HO-Succinyl-Trp-1Ni-Pro-Glu-Leu-[Cys(3MeBn)-Aib-Leu-Ile-Cys]-Ttds-Lys(DOTA)-NH2] (Suc-W[1Nal]PELC[Aib]LIC-X5; linker 6-10 via mXylylene), the IC50 is below 10 nM.

Regarding `CC[C@H](C)[C@@H]1NC(=O)[C@H](CC(C)C)NC(=O)C2(CCCCC2)NC(=O)[C@@H](NC(=O)[C@@H](CC(C)C)NC(=O)[C@H](CCC(=O)O)NC(=O)[C@@H]2CCCN2C(=O)[C@H](Cc2c[nH]c3ccc(Cl)cc23)NC(=O)[C@H](Cc2c[nH]c3ccccc23)NC(=O)[C@H](CC(=O)O)NC(=O)CCC(=O)NCCCOCCOCCOCCCNC(=O)CN2CCN(CC(=O)O)CCN(CC(=O)O)CCN(CC(=O)O)CC2)CSCc2cccc(c2)CSCCNC1=O` [GIP-086, DOTA-Ttds-Asp-Trp-5Clw-Pro-Glu-leu-[Cys(3MeBn)-Egz-Leu-Ile-AET]] ({X3-Suc}-DW[Trp(5-Cl)]PE[dL]C[Ac6c]LI; linker 7-C via X7), the IC50 is below 10 nM.

Turning to `CC[C@H](C)[C@@H]1NC(=O)[C@H](CC(C)C)NC(=O)C2(CCOCC2)NC(=O)[C@@H](NC(=O)[C@@H](CC(C)C)NC(=O)[C@H](CCC(=O)O)NC(=O)[C@@H]2CCCN2C(=O)[C@H](Cc2c[nH]c3ccc(Cl)cc23)NC(=O)[C@H](Cc2c[nH]c3ccccc23)NC(=O)[C@H](CC(=O)O)NC(=O)CCC(=O)NCCCOCCOCCOCCCNC(=O)CN2CCN(CC(=O)O)CCN(CC(=O)O)CCN(CC(=O)O)CC2)CSCc2cccc(c2)CSCCNC1=O` [GIP-087, DOTA-Ttds-Asp-Trp-5Clw-Pro-Glu-leu-[Cys(3MeBn)-Thp-Leu-Ile-AET]] ({X3-Suc}-DW[Trp(5-Cl)]PE[dL]C[Thp]LI; linker 7-C via X7), the IC50 is below 10 nM.

For the molecule `CC[C@H](C)[C@@H]1NC(=O)[C@H](CC(C)C)NC(=O)C2(CCNCC2)NC(=O)[C@@H](NC(=O)[C@@H](CC(C)C)NC(=O)[C@H](CCC(=O)O)NC(=O)[C@@H]2CCCN2C(=O)[C@H](Cc2c[nH]c3ccc(Cl)cc23)NC(=O)[C@H](Cc2c[nH]c3ccccc23)NC(=O)[C@H](CC(=O)O)NC(=O)CCC(=O)NCCCOCCOCCOCCCNC(=O)CN2CCN(CC(=O)O)CCN(CC(=O)O)CCN(CC(=O)O)CC2)CSCc2cccc(c2)CSCCNC1=O` [GIP-088, DOTA-Ttds-Asp-Trp-5Clw-Pro-Glu-leu-[Cys(3MeBn)-Apc-Leu-Ile-AET]] ({X3-Suc}-DW[Trp(5-Cl)]PE[dL]C[Api]LI; linker 7-C via X7), the IC50 is below 10 nM.

The values above are taken from patent US20250296971A1, “GASTRIC INHIBITORY PEPTIDE RECEPTOR LIGANDS” (priority 2021, published 2025).
